Earlier results in patent publication US20130121964A1, “Pharmacogenomic and Response-Guided Treatment of Infectious Disease Using Yeast-Based Immunotherapy” (GLOBEIMMUNE, INC., priority 2010, published 2013).

Tests used:
[1] = in vivo

solubility in anhydrous alcohol (anhydrous alcohol): slightly soluble | solubility in water (water): freely soluble
SMILES: NC(=O)c1ncn([C@@H]2O[C@H](CO)[C@@H](O)[C@H]2O)n1 [Ribavirin, 1-(beta)-D-ribofuranosyl-1H-1,2,4-triazole-3-carboxamide]
patients with hemolytic anemia [1]: 20-30%
